Format: physicochemical
Procedure: The oxidative stability at 90° C. was determined according to DIN EN ISO 6886 for the blend of Example 1 and compared with the oxidative stability of squalene.

Induction time (oxidative stability): 4.84 h
Compound: CC(C)=CCC/C(C)=C/CC/C(C)=C/CC/C=C(\C)CC/C=C(\C)CCC=C(C)C [squalene]

From patent publication US20220387276A1, “Composition Comprising Oils, Free Fatty Acids And Squalene” (Clariant International Ltd., priority 2021, published 2022)
